Measured values: patent US8816101B2, “Paraconic acids as pigmentation activators” (Centre National de la Recherche Scientifique—CNRS, priority 2010, dated 2014)

Test system: B16 murine cells
Assay: Melanin content of B16 murine cells by spectrophotometry (pigmenting activity in vitro)
Assay type: cell-based
Conditions: B16 cells treated 72 h
Experimental: Protocol: The melanin content of B16 murine cells is determined by spectrophotometry.
The cells are seeded in 10-cm Petri dishes at a density of 1×10^6 per dish and are treated every 24 hours for 72 hours with the specified dose of purified lichenic substance, dissolved in DMSO. […] After treatment, the cells are washed twice with PBS and recovered by treatment with trypsin. The number of cells recovered is estimated by counting using a haemocytometer. One fraction is used for determining the melanin content and a second fraction for the concentration of protein. The melanin content is determined from the absorbance at 405 nm (VersaMax Microplate Reader, Molecular Devices, USA) of the cellular solution after solubilization of the melanin with 1M sodium hydroxide, for 15 min at 80° C. The protein concentration is determined according to the protocol of the “DC Protein Assay” kit developed by Bio-Rad Laboratories, USA. For each sample treated, the melanin content is referred to the amount of protein and expressed as percentage relative to the control situation (DMSO solution only). Each measurement is performed in triplicate and each experiment is carried out independently for a minimum of 3 times.
The molecules tested, with their concentrations expressed in μM, are shown on the abscissa.
On the ordinate, the melanin content is expressed as percentage relative to the control (DMSO alone=concentration of 0.1%).

Row | SMILES | pro-pigmenting effect (% of pigmentation) (5 μM, relative to DMSO control) [%] | pigmentation relative to the control (melanin content) (0.5 μM, control DMSO 0.1%) [%] | depigmentation (0.5 μM, relative to DMSO control) [%]
1 | CCCCCCCCCCCCC[C@H]1OC(=O)C(C)=C1C(=O)O [lichesterinic acid, (+)-Lichesterinic acid] | 26 |  | 
2 | C=C1C(=O)O[C@H](CCCCCCCCCCCCC)[C@H]1C(=O)O [protolichesterinic acid, (+)-Protolichesterinic acid] |  | 72 | 28
